Consider 20 compounds from paper PMC9891166, “Derivatives of 4-methyl-1,2,3-benzoxathiazine 2,2-dioxide as selective inhibitors of human carbonic anhydrases IX and XII over the cytosolic isoforms I and II” (Journal of Enzyme Inhibition and Medicinal Chemistry, 2023).

Where two headings read alike, the source gives them in different places. A value given as a limit tells only on which side of the number the result lay.

Holding throughout (test): stopped-flow CO2 hydration assay
What all share (assay type): biochemical

The target in experiment [1] is T1, hCA I (Homo sapiens, UniProt P00915).
T1 construct: gene CA1; recombinant, obtained in-house as reported earlier; cytosolic
Particulars: read-out: KI (nM)^a,b / hCA I. The text has this: stopped-flow CO2 hydration assay on hCA I

Experiment [2] concerns the target T2, hCA II (Homo sapiens, UniProt P00918).
T2 construct: gene CA2; recombinant, obtained in-house as reported earlier; cytosolic
The conditions noted are these: read-out: KI (nM)^a,b / hCA II. An excerpt:
stopped-flow CO2 hydration assay on hCA II

The target in experiment [3] is T2, hCA II. Particulars: read-out: KI (nM)^a,b / hCA I.

T1 sequence (P00915 2-261): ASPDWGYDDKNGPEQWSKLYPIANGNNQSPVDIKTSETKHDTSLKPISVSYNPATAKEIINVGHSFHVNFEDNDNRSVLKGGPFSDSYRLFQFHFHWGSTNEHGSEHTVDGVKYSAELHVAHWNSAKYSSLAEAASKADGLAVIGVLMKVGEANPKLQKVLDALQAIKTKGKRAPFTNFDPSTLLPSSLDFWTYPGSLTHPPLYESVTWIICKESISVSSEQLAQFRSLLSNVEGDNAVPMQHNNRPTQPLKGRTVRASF

Consider `CC1=NS(=O)(=O)Oc2cc(-c3ccccc3)ccc21` [5f, 4-Methyl-7-phenyl-1,2,3-benzoxathiazine 2,2-dioxide], for which the Ki in experiment [1] was over 100000 nM; in experiment [2] it was 2360 nM.

For `CC1=NS(=O)(=O)Oc2ccc(-c3ccc(Cl)c(Cl)c3)cc21` [5d, 6–(3,4-Dichlorophenyl)-4-methyl-1,2,3-benzoxathiazine 2,2-dioxide], the Ki was over 100000 nM in experiment [1] and 4530 nM in experiment [2].

For the compound `COc1ccc(-c2ccc3c(c2)C(C)=NS(=O)(=O)O3)cc1` [5c, 6–(4-Methoxyphenyl)-4-methyl-1,2,3-benzoxathiazine 2,2-dioxide], the Ki turned out to be 70500 nM in experiment [1] and 7120 nM in experiment [2].

Take `CCOC(=O)c1ccc(-c2ccc3c(c2)OS(=O)(=O)N=C3C)cc1` [5j, Ethyl 4–(4-methyl-2,2-dioxido-1,2,3-benzoxathiazin-7-yl)benzoate]: the results for the Ki in experiment [1] and in experiment [2] were over 100000 nM and 6780 nM, respectively.

As for `CC1=NS(=O)(=O)Oc2cc(C)ccc21` [2f, 4,7-Dimethyl-1,2,3-benzoxathiazine 2,2-dioxide], the Ki in experiment [1] was determined as 33200 nM; in experiment [2], 788 nM.

As to `CC1=NS(=O)(=O)Oc2ccc(C)cc21` [2b, 4,6-Dimethyl-1,2,3-benzoxathiazine 2,2-dioxide], the Ki was determined as 21000 nM in experiment [1] and 457 nM in experiment [2].

Turning to `COc1cccc2c1C(C)=NS(=O)(=O)O2` [2a, 5-Methoxy-4-methyl-1,2,3-benzoxathiazine 2,2-dioxide], the Ki in experiment [1] and in experiment [3] was over 100000 nM in each case.

`CC1=NS(=O)(=O)Oc2cc(-c3ccc(F)cc3)ccc21` [5g, 7–(4-Fluorophenyl)-4-methyl-1,2,3-benzoxathiazine 2,2-dioxide]: the Ki in experiment [1] is over 100000 nM; in experiment [2], 5370 nM.

For `CC1=NS(=O)(=O)Oc2cc(F)ccc21` [2h, 7-Fluoro-4-methyl-1,2,3-benzoxathiazine 2,2-dioxide], the Ki in experiment [1] turned out to be 10500 nM; in experiment [2] it was 284 nM.

In the case of `CC1=NS(=O)(=O)Oc2cc(-c3ccc(Cl)c(Cl)c3)ccc21` [5i, 7–(3,4-Dichlorophenyl)-4-methyl-1,2,3-benzoxathiazine 2,2-dioxide], the Ki in experiment [1] was over 100000 nM; in experiment [2], 10000 nM.

For the compound `CC1=NS(=O)(=O)Oc2ccc(Br)cc21` [2e, 6-Bromo-4-methyl-1,2,3-benzoxathiazine 2,2-dioxide], the Ki in experiment [1] was over 100000 nM; in experiment [2], 5570 nM.

Take `CC1=NS(=O)(=O)Oc2ccc(Cl)cc21` [2d, 6-Chloro-4-methyl-1,2,3-benzoxathiazine 2,2-dioxide]: the Ki in experiment [1] turned out to be 45700 nM; in experiment [2], 634 nM.

`CC1=NS(=O)(=O)Oc2ccc(-c3ccccc3)cc21` [5a, 4-Methyl-6-phenyl-1,2,3-benzoxathiazine 2,2-dioxide]: the Ki in experiment [1] was 60600 nM; in experiment [2], 936 nM.

Turning to `CC1=NS(=O)(=O)Oc2cc(Br)ccc21` [2j, 7-Bromo-4-methyl-1,2,3-benzoxathiazine 2,2-dioxide], the Ki in experiment [1] was over 100000 nM; in experiment [2], 11500 nM.

Turning to `CCOC(=O)c1ccc(-c2ccc3c(c2)C(C)=NS(=O)(=O)O3)cc1` [5e, Ethyl 4–(4-methyl-2,2-dioxido-1,2,3-benzoxathiazin-6-yl)benzoate], the Ki in experiment [1] is 19600 nM; in experiment [2], 8250 nM.

Take `CC1=NS(=O)(=O)Oc2cc(Cl)ccc21` [2i, 7-Chloro-4-methyl-1,2,3-benzoxathiazine 2,2-dioxide]: the Ki in experiment [1] came to 82100 nM; in experiment [2] it was 1660 nM.

Regarding `COc1ccc2c(c1)OS(=O)(=O)N=C2C` [2g, 7-Methoxy-4-methyl-1,2,3-benzoxathiazine 2,2-dioxide], the Ki came to 24900 nM in experiment [1] and 559 nM in experiment [2].

`CC1=NS(=O)(=O)Oc2ccc(F)cc21` [2c, 6-Fluoro-4-methyl-1,2,3-benzoxathiazine 2,2-dioxide]: the Ki was determined as 12400 nM in experiment [1] and 229 nM in experiment [2].

As to `COc1ccc(-c2ccc3c(c2)OS(=O)(=O)N=C3C)cc1` [5h, 7–(4-Methoxyphenyl)-4-methyl-1,2,3-benzoxathiazine 2,2-dioxide], the Ki was over 100000 nM in experiment [1] and 3170 nM in experiment [2].

Take `CC1=NS(=O)(=O)Oc2ccc(-c3ccc(F)cc3)cc21` [5b, 6–(4-Fluorophenyl)-4-methyl-1,2,3-benzoxathiazine 2,2-dioxide]: the Ki in experiment [1] stood at 24500 nM; in experiment [2] it was 1530 nM.
